Assay results as given in US10253004B2, “Indanylaminopyrazinylcyclopropanecarboxylic acids, pharmaceutical compositions and uses thereof” (Boehringer Ingelheim International GmbH, priority 2017, dated 2019).
Values after ≈ are worked out from the molar mass of the structure shown. Where two headings read alike, the source gives them in different places.

How the values were obtained:
[1] = molecular target: cytochrome P450 2C8-isoenzyme (Homo sapiens (Human), UniProt P10632); experiment: Inhibition of CYP-2C8 (amodiaquine deethylation, human liver microsomes); format: in vitro ADME; settings: amodiaquine 1 μM, 37° C.
cytochrome P450 2C8-isoenzyme, sequence (P10632 whole entry): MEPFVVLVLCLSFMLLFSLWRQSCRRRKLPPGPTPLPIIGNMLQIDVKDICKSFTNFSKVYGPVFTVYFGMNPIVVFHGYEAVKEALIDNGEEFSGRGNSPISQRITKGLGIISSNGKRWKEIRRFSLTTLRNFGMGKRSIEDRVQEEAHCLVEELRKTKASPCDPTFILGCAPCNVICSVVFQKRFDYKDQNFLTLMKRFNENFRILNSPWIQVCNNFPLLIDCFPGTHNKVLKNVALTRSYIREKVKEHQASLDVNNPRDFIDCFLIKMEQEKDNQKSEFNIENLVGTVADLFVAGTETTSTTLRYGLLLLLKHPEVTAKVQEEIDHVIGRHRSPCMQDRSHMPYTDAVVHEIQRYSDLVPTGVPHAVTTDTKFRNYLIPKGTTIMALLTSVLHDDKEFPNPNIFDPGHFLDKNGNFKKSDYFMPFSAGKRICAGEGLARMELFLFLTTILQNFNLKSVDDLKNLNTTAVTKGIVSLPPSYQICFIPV
Procedure: (§1) All assays are carried out on a robotic system in 96 well plates. The final incubation volume contains TRIS buffer (0.1 M), MgCl2 (5 mM), human liver microsomes (0.05 mg/mL), amodiaquine (1 μM) and the test compound at five different concentrations or no compound (high control) in duplicate (e.g. highest concentration 10-50 μM with subsequent serial 1:4 dilutions). Following a short preincubation period, reactions are started with the cofactor (NADPH, 1 mM) and stopped by cooling the incubation down to 8° C. and subsequently by addition of one volume of acetonitrile. An internal standard solution—the stable isotope d5-desethylamodiaquine—is added after quenching of incubations. Peak area analyte (=metabolite formed) and internal standard is determined by LC-MS/MS. The resulting peak area ratio analyte to internal standard in these incubations is compared to a control activity containing no test compound. Within each of the assay runs, the IC50 of a positive control inhibitor (Montelukast) is determined.

[2] = molecular target: cytochrome P450 2C9-isoenzyme (Homo sapiens (Human), UniProt P11712); experiment: Inhibition of CYP-2C9 (diclofenac hydroxylation, human liver microsomes); format: in vitro ADME; settings: diclofenac 10 μM, 37° C.
cytochrome P450 2C9-isoenzyme, sequence (P11712 whole entry): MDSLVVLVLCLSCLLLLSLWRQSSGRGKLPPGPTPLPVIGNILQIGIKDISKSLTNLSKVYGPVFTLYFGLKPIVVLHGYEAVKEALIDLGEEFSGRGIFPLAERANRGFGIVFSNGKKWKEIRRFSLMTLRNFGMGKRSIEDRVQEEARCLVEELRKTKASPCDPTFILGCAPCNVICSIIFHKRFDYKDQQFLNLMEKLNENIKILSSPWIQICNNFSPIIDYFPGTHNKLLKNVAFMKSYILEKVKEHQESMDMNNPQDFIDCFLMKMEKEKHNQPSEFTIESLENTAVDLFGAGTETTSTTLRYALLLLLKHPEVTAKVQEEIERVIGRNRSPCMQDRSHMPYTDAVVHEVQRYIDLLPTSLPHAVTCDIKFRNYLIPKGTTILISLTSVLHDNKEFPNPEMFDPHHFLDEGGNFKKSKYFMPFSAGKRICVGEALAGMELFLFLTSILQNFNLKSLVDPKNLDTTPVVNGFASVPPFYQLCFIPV
Procedure: as §1, with “(0.1” for “(0.05”, “diclofenac (10” for “amodiaquine (1”, “(e.g.,” for “(e.g.”, “^13C6-hydroxydiclofenac—is” for “d5-desethylamodiaquine—is”, “(sulfaphenazole)” for “(Montelukast)”

[3] = Aqueous solubility in buffer vs acetonitrile/water, LC-UV; format: physicochemical; settings: kinetic from dmso stock, pH 6.8 buffer, 24 h shaking, 2.5% DMSO
Procedure: The aqueous solubility of the compounds of the invention is determined by comparing the amount dissolved in buffer to the amount in an acetonitrile/water (1/1) solution. Starting from a 10 mM DMSO stock solution aliquots are diluted with acetonitrile/water (1/1) or buffer, respectively. After 24 h of shaking, the solutions are filtrated and analyzed by LC-UV. The amount dissolved in buffer is compared to the amount in the acetonitrile solution.
Solubility is usually being measured from 0.001 to 0.125 mg/mL at a DMSO concentration of 2.5%. If more than 90% of the compound is dissolved in buffer, the value is marked with “>”.

[4] = Chemical stability (degradation kinetics) in acidic aqueous media, HPLC recovery; format: physicochemical; settings: for Amount of degradation after 2 h: pH ca. 1.2, 37° C., acetonitrile/0.1 M aqueous HCl (2:3); for Chemical stability at pH ca. 1.2: degradation after 2 h at 37° C.: pH ca. 1.2, 2 h
Procedure: Degradation kinetics is used to simulate chemical stability of compounds in the acidic part of the gastro intestinal tract. […] Their application as medical drugs to treat human diseases is therefore less restricted and troublesome.
The chemical stability of the compounds of the invention at pH value of ca. 1.2 is determined as follows:
Compound is dissolved in an HPLC vial either in a mixture of acetonitrile/0.1 M aqueous HCl (2:3; pH ca. 1.2) or in a mixture of acetonitrile/Mcllvaine buffer pH 7.4 (2:3) to get a concentration of approximately 0.25 mg/ml. The vial was then transferred into an HPLC autosampler system and maintained at a temperature of 37° C. A first sample is taken and injected immediately into a standard HPLC system with a UV DAD detector. Further samples are injected after 2, 4, 6, 8 and 10 hours. Amount of degraded compound is measured by determining the recovery rate of compound [%] for each injection using an HPLC standard gradient method. Therefore the peak area of the main peak for the first injection (AUt0) is determined and set as 100%. Peak area of the main peak is determined also for the further injections (AUtn, n=2, 4, 6, 8, 10) and expressed as fraction of […] [%].

[5] = molecular target: human GPR40 receptor (Homo sapiens (Human), UniProt O14842); experiment: IP1 accumulation measurements using the IPOne assay system; format: cell-based
human GPR40 receptor, sequence (O14842 whole entry): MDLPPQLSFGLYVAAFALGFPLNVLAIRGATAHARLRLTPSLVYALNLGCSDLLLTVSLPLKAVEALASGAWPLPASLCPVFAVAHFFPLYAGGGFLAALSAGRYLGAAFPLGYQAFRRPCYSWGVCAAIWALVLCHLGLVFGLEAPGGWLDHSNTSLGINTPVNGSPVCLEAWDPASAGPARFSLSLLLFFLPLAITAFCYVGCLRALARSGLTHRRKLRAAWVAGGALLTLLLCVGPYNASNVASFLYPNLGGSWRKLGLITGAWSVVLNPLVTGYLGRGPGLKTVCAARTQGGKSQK
Procedure: IP1 accumulation measurements using the IPOne assay system—1321N1 cells stably expressing human GPR40 receptor (Euroscreen, Belgium) are seeded 24 h before the assay in white 384-well plates in culture medium containing 10% FCS, 1% Na-Pyruvate and 400 μg/mL G418. IP1 is assayed according to the manufacturer's description (Cisbio Bioassays, France). In brief, the assay is started by substitution of the culture medium by stimulation buffer (Hepes 10 mM, CaCl2 1 mM, MgCl2 0.5 mM, KCl 4.2 mM, NaCl 146 mM, glucose 5.5 mM and LiCl 50 mM, pH 7.4). Cells are stimulated for 1 h at 37° C., 5% CO2 by addition of the compounds that are diluted in stimulation buffer containing LiCl. Assays are stopped by adding HTRF-conjugates (IP1-d2 and Anti-IP1 cryptate Tb) and lysis buffer, provided by the manufacturer. After an incubation time of 1 h at room temperature plates are measured using an EnVision™, Perkin Elmer. The obtained fluorescence ratios at 665/615 […] are then used to calculate the pEC50 values using Assay Explorer 3.3 Software (Accelrys, Inc.) by interpolation using an IP1 reference curve and subsequent sigmoidal curve fitting allowing for a variable hill slope.

[6] = given as IC50, own-compound values equal the EC50 of Table 2, read-out: GPR40: IC50
[7] = 1321N1 cells stably expressing human GPR40, IP1 accumulation, read-out: EC50

Row | Structure (SMILES) | IC50 [1] | IC50 [2] | solubility at 24 h ([3]; aqueous buffer) | Amount of degradation after 2 h [4] | Chemical stability at pH ca. 1.2: degradation after 2 h at 37° C. [4] | EC50 [5, 6] | solubility at 24 h ([3]; buffer pH 6.8, aqueous buffer) | EC50 [5, 7]
1 | Cc1cc(-c2nnn(C)n2)cc(C)c1-c1ccc(F)c2c1CC[C@H]2Nc1cnc([C@H]2C[C@@H]2C(=O)O)cn1 [Example 35] | 21000 nM | 32000 nM | 0.034 mg/mL (≈ 68.1 µM) | <1% | < 1% | 2 nM | – | –
2 | Cc1cc(OCCC(C)(C)O)cc(C)c1-c1ccc(F)c2c1CC[C@H]2Oc1ccc([C@H]2C[C@@H]2C(=O)O)cc1 [Example 17 in WO 2013/178575, reference compound] | – | – | – | 8% | 8% | – | < 0.001 mg/mL | –
3 | Cc1c(C#N)cccc1-c1ccc(F)c2c1CC[C@H]2Oc1ccc([C@H]2C[C@@H]2C(=O)O)cc1 [Example 54 in WO 2013/178575, reference compound] | – | – | – | 2.5%^ | – | – | – | –
4 | Cc1cc(OCCC(C)(C)O)cc(C)c1-c1ccc(F)c2c1CC[C@H]2Nc1cnc([C@H]2C[C@@H]2C(=O)O)cn1 [Example 2, (1S,2S)-2-(5-{(R)-7-Fluoro-4-[4-(3-hydroxy-3-methyl-butoxy)-2,6-dimethyl-phenyl]-indan-1-ylamino}-pyrazin-2-yl)-cyclopropanecarboxylic acid] | > 50000 nM | > 50000 nM | – | <0.5% | < 0.5% | 4 nM | 0.087 mg/mL (≈ 167 µM) | 4 nM
5 | Cc1cc(OCCC(C)(C)O)cc(C)c1-c1cccc2c1CC[C@H]2Nc1cnc([C@H]2C[C@@H]2C(=O)O)cn1 [Example 7, (1S,2S)-2-(5-{(R)-4-[4-(3-Hydroxy-3-methyl-butoxy)-2,6-dimethyl-phenyl]-indan-1-ylamino}-pyrazin-2-yl)-cyclopropanecarboxylic acid] | – | – | – | <1% | – | – | – | 4 nM
6 | Cc1cc(OCCCS(C)(=O)=O)cc(C)c1-c1ccc(F)c2c1CC[C@H]2Oc1ccc([C@H]2C[C@@H]2C(=O)O)cc1 [Example 11 in WO 2013/178575, reference compound] | 12000 nM | 17000 nM | – | 5% | 5% | 8 nM | – | –
7 | Cc1cc(-c2nnn(C)n2)cc(C)c1-c1ccc(F)c2c1CC[C@H]2Oc1ccc([C@H]2C[C@@H]2C(=O)O)cc1 [Example 45 in WO 2013/178575, reference compound] | – | – | – | – | – | – | < 0.001 mg/mL | –
8 | Cc1cc(OCCCS(C)(=O)=O)cc(C)c1-c1ccc(F)c2c1CC[C@H]2Nc1cnc([C@H]2C[C@@H]2C(=O)O)cn1 [Example 4, (1S,2S)-2-(5-{(R)-7-Fluoro-4-[4-(3-methanesulfonyl-propoxy)-2,6-dimethyl-phenyl]-indan-1-ylamino}-pyrazin-2-yl)-cyclopropanecarboxylic acid] | > 50000 nM | > 50000 nM | – | <0.5% | < 0.5% | 8 nM | 0.092 mg/mL (≈ 166 µM) | 8 nM
9 | Cc1cc(C(=O)NCC(C)(C)O)cc(C)c1-c1ccc(F)c2c1CC[C@H]2Oc1ccc([C@H]2C[C@@H]2C(=O)O)cc1 [Example 15 in WO 2013/178575, reference compound] | – | – | – | 3% | – | – | – | –
